Measured values taken from publication PMC6348444, “New Water-Soluble Copper(II) Complexes with Morpholine–Thiosemicarbazone Hybrids: Insights into the Anticancer and Antibacterial Mode of Action” (Journal of Medicinal Chemistry, 2018).
Like-named read-outs stand apart in the source and are kept apart here. Marks after values point to notes of the source that are not given here.

Tests used:
A2780 cells [1] = test: Annexin V/PI apoptosis assay; assay type: cell-based, human; settings: A2780, concentration corresponding to Cu content in 2 at 2IC50
Source text: To elucidate if observed cytotoxicity of new compounds described in this study was a result of apoptosis induction, we conducted Annexin V/PI apoptosis assay. In brief, fluorochrome-labeled Annexin V reagent is used for detection of membrane phosphatidylserine (PS), which translocates to the cellular surface from the inner side of plasma membrane in the event of early apoptosis. Simultaneously, PI is used for detection of later stages of apoptosis or necrosis, which are characterized by loss of membrane integrity and accumulation of PI inside the cells. […] Results are illustrated in Figure 9. Upon incubation of A2780 cells with increasing concentrations of HL^2 and 2, the dose-dependent increase of apoptotic cells was observed.
A2780 cells were seeded into Cellstar 12-well plates (Greiner Bio-One) at a density of 20 × 10^4 cells/well (1 mL per well). The cells were allowed to resume exponential growth for 24 h and subsequently they were exposed to HL^2 and 2 at different concentrations for 24 h. After the supernatant solution was collected in 1.5 mL microtubes, the cells were washed with 100 μL of trypsin, which was combined with the supernatant. Subsequently, cells were trypsinized with 200 μL of trypsin for 5 min at 37 °C, 5% CO2, washed with 200 μL of PBS, and combined with the supernatant. The cells were centrifuged at 2.5 × 10^3 rpm for 5 min and the pellets were washed once with PBS and resuspended in 500 μL of Annexin V binding buffer and stained with Annexin V-FITC and PI reagents. The fluorescence was immediately analyzed by flow cytometry. The resulting dot blots were acquired from 10 000 events and quantified using Flowjo software (Flowjo LLC, Ashland, OR, USA).

A2780 cells [2] = test: MTT cytotoxicity assay, A2780; assay type: cell-based, human
A2780 cells [3] = test: Cellular accumulation of Cu by ICP-MS; assay type: cell-based, human; settings: 24 h exposure
Source text: The ability of anticancer drugs to penetrate biological membranes, tissues, and barriers underlies their biological, pharmacokinetic, and metabolic properties. These properties can be predicted by calculating physicochemical characteristics of drug candidates using molecular descriptors.[30] […] The results are shown in Table S7 in the Supporting Information. On the basis of the calculated physicochemical parameters, we determined if novel compounds belonged to the drug-like chemical space, which is commonly defined by the well-known Lipinski rule, or to the known drug space (KDS), which includes all small compounds in medical use.[31] […] Following the calculations, we determined the lipophilicity of all compounds experimentally (log D7.4, Tables 1 and 2). It is known that cancer cells accumulate hydrophilic compounds to a smaller extent relative to hydrophobic compounds, thereby affecting their activity. […] As expected, proligands were more lipophilic than the corresponding Cu(II) species, which are positively charged at physiological pH (Figure 3b). […] The lipophilicity of 2–5 increased in the following order 4 < 2 < 3 < 5, and correlated well with their cytotoxicity in cancer cells, with the exception of 3. Subsequently, we determined the total cellular accumulation of Cu in A2780 cells by ICP–MS upon 24 h exposure to 1–6 in comparison with CuCl2 (Table 2). […] The accumulation increased in the order 6 < 1 < 3 < 4 < 2 < 5.
Cellular accumulation of 1–6 was determined in A2780 cells. Cells were seeded into Cellstar 6-well plates (Greiner Bio-one) at a density of 60 × 10^4 cells/well (2 mL per well). After the cells were allowed to resume exponential growth for 24 h, they were exposed to 1–6 at 1 μM for 24 h at 37 °C. The cells were washed twice with 1 mL of PBS and lysed with RIPA lysis buffer for 5–10 min at 4 °C. The cell lysates were scraped from the wells and transferred to separate 1.5 mL microtubes. The supernatant was then collected after centrifugation (13 000 rpm, 4 °C for 15 min) and total protein content of each sample was quantified via Bradford’s assay. Cell lysates were transferred to 2 mL glass vials and then digested with ultrapure 65% HNO3 at 100 °C for 24 h. The resulting solution was diluted to 1 mL (2–4% v/v HNO3) with ultrapure Milli-Q water. Cu content of each sample was quantified by ICP–MS. In was used as an internal standard. Cu and In were measured at m/z 64 and m/z 115, respectively. Metal standards for calibration curve (0, 0.5, 1, 2, 5, 10, 20, and 40 ppb) were freshly prepared before each measurement. All readings were made in triplicates in He mode. For temperature-dependent cellular accumulation experiments, A2780 cells were seeded into 35 n 10 mm tissue culture plates at a density of 60 0 10^4 cells/plate. After the cells were allowed to resume exponential growth for 24 h, they were exposed to 2 at 3 μM for 10, 30, 60, and 120 min at 37 and 4 °C. The subsequent analysis was performed as described above. For energy-dependent experiments, A2780 cells were seeded into 35 5 10 mm tissue culture plates at a density of 1 0 10^6 cells/plate. After the cells were allowed to resume exponential growth for 24 h, they were preincubated with oligomycin (5 μM) for 1 or 4 h or with cycloheximide (100 μM) for 4 h and further co-incubated with 3 μM of 2 at 37 °C. To induce total starvation, after the cells were allowed to resume exponential growth for 24 h, RPMI media was replaced with HBSS, and cells were preincubated in HBSS for 1 h and further incubated with 3 μM of 2 for 1 h at 37 °C. The subsequent analysis was performed as described above.

HEK293 cells = test: MTT cytotoxicity assay, HEK293; assay type: cell-based, human; settings: for SF (selectivity factor): IC50(HEK293)/IC50(A2780); for IC50: MTT assay, 72 h exposure, noncancerous cells
A2780cisR cells = test: MTT cytotoxicity assay, A2780cisR; assay type: cell-based, human; settings: for RF (resistance factor): IC50(A2780cisR)/IC50(A2780); for IC50: MTT assay, 72 h exposure, cisplatin-resistant A2780cisR, read-out: IC50 A2780cis
[4] = test system: Staphylococcus aureus CECT 86 (ATCC 12600); test: MIC microdilution, S. aureus; assay type: cell-based; settings: planktonic cells; for S. aureus MIC50: growth inhibited at 50%; for S. aureus MIC100: lowest concentration completely inhibiting growth
Protocol: (§1) Wild-type P. aeruginosa PAO1 strain CECT 4122 (ATCC 15692) and S. aureus CECT 86 (ATCC 12600) were obtained from the Spanish Type Culture Collection (CECT). All strains were routinely cultivated in TSB medium (Sharlab, Spain) at 37 °C. MIC assays were determined by the microdilution method using TSB broth following the method described by the Clinical and Laboratory standards Institute.[94] In brief, compounds were diluted in a 96-well microtiter plate (tissue culture-treated polystyrene; […]

[5] = test system: Pseudomonas aeruginosa PAO1 CECT 4122 (ATCC 15692); test: MIC microdilution, P. aeruginosa; assay type: cell-based; settings: planktonic cells; for P. aeruginosa MIC50: growth inhibited at 50%; for P. aeruginosa MIC100: lowest concentration completely inhibiting growth
Protocol: as §1

[6] = n-octanol/water distribution coefficient, shake-flask; assay type: physicochemical; settings: n-octanol/buffered aqueous solution, pH 7.40, UV-vis
Protocol: The titrations were carried out under a nitrogen atmosphere.

[7] = Cyclic voltammetry, redox potentials; assay type: physicochemical; settings: first reduction step; for E1/2 Red1 (DMSO) vs NHE / E1/2 Red1 (MeOH) vs NHE: vs NHE (in brackets)
Protocol: To assess the redox properties of 1-6, detailed electrochemical and spectroscopic studies in various solvents were performed using cyclic voltammetry as well as EPR-spectroelectrochemistry. Additionally, the UV-vis spectra of 1-5 were measured (Figure S8). […] The second reduction step occurred at -1.8 V versus Fc^+/Fc (-1.16 V vs NHE) and was less reversible, indicating a ligand-based reduction. […] In aqueous solutions, the reduction potentials shifted to the less negative values, and reduction was less reversible as shown for 2 in Figure S10. […] Cyclic voltammetric experiments were performed as described previously.[46] The cyclic voltammograms were measured in the cathodic region in different solvents (DMSO, methanol, DMSO/H2O). The analytical purity grade LiClO4 (Sigma-Aldrich) and distilled and deionized water were used for preparation of 1 mM aqueous solutions of the investigated complexes 1-6. EPR spectra were recorded with the EMX plus. In situ UV-vis-NIR spectroelectrochemical measurements were performed on a spectrometer (Avantes, Model AvaSpec-2048x14-USB2 in the spectroelectrochemical cell kit ([…]3)) with the Pt-microstructured honeycomb working electrode, purchased from Pine Research Instrumentation. The cell was positioned in the CUV-UV Cuvette Holder (Ocean Optics) connected to the diode-array UV-vis-NIR spectrometer by optical fibers. UV-vis-NIR spectra were processed using the AvaSoft 7.7 software package. Halogen and deuterium lamps were used as light sources (Avantes, Model AvaLight-DH-S-BAL). The in situ EPR spectroelectrochemical experiments were carried out under an argon atmosphere in the EPR flat cell equipped with a large platinum mesh working electrode. The freshly prepared solutions were carefully purged with argon and the electrolytic cell was polarized in the galvanostatic mode directly in the cylindrical EPR cavity TM-110 (ER 4103 TM), and the EPR spectra were measured in situ.

Solubility in water = assay type: physicochemical; settings: sterile water stock solutions
Protocol: Human ovarian carcinoma cells A2780 and A2780cisR and human embryonic kidney HEK293 were obtained from ATCC. A2780 and A2780cisR cells were cultured in RPMI 1640 medium containing 10% FBS. HEK293 were cultured in DMEM medium containing 10% FBS. All cells were grown in tissue culture 25 cm^2 flasks (BD Biosciences, Singapore) at 37 °C in a humidified atmosphere of 95% air and 5% CO2. All drug stock solutions were prepared in sterile water. The amount of Cu was determined by ICP–OES.

mouse R2 RNR protein = target: T1, mouse R2 RNR protein (Mus musculus, UniProt P11157); set-up: method as in PMID 21955844; settings: mouse R2, after 5 min, same experimental conditions; cited from earlier work
T1 construct: made in house; host or cells: Escherichia coli
T1 sequence (P11157 1-390): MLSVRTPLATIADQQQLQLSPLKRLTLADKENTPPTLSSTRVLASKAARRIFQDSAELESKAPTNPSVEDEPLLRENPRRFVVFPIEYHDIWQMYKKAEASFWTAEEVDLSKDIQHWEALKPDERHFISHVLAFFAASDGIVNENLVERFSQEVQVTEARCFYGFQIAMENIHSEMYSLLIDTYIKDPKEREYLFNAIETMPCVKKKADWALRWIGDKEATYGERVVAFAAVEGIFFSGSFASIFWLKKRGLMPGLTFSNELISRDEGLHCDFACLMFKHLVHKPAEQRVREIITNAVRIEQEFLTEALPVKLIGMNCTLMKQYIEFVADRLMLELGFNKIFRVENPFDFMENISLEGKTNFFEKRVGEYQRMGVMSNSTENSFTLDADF

| S. aureus MIC50 [4] [µg/mL] | S. aureus MIC100 [4] [µg/mL] | cellular accumulation A2780 (A2780 cells [3]; 1 μM) [nmol Cu/mg protein] | log D7.4 [6] | E1/2 Red1 (DMSO) vs Fc+/Fc [7] | E1/2 Red1 (DMSO) vs NHE [7] | E1/2 Red1 (MeOH) vs Fc+/Fc [7] | E1/2 Red1 (MeOH) vs NHE [7] | solubility in water (Solubility in water) [µM] | Structure (SMILES) | IC50 (A2780 cells [2]; 72 h exposure) [µM] | SF (selectivity factor) (HEK293 cells) | IC50 (HEK293 cells) [µM] | RF (resistance factor) (A2780cisR cells) | IC50 (A2780cisR cells) [µM] | P. aeruginosa MIC50 [5] | P. aeruginosa MIC100 [5] | further results |
| --- | --- | --- | --- | --- | --- | --- | --- | --- | --- | --- | --- | --- | --- | --- | --- | --- | --- |
|  |  |  |  |  |  |  |  |  | [Cl][Cu][Cl] [CuCl2, reference compound] | 83 ± 12 | 2.3 | 187 ± 37 | 1.0 | 82 ± 3 |  |  | induction of apoptosis (A2780 cells [1]): no induction of apoptosis was detected; cellular accumulation A2780 (A2780 cells [3]; 2.5 μM): 0.17 ± 0.05 ^f nmol Cu/mg protein |
| 100 | >500 | 0.63 ± 0.09 | –0.81 ± 0.04 | –0.81 V | –0.17 V | –0.57 V | +0.07 V | ≤ 2000 | NC(=NN=Cc1ccc(CN2CCOCC2)cn1)[S][Cu][Cl] [complex 1, [Cu(L^1)Cl]] | 2.2 ± 0.1 | 7.3 | 16 ± 2 | 5.9 | 13 ± 4 | NA (NA denotes no antibacterial activity detected (>500 μg/mL)) | NA (NA denotes no antibacterial activity detected (>500 μg/mL)) |  |
| 3 | 10 | 2.2 ± 0.6 | +0.86 ± 0.02 | –0.80 V | –0.16 V | –0.49 V | +0.15 V | 300 | [Cl][Cu][S]C(=NN=Cc1ccc(CN2CCOCC2)cn1)N1CCCC1 [complex 3, [Cu(L^3)Cl]] | 0.26 ± 0.02 | 3.0 | 0.78 ± 0.2 | 2.3 | 0.6 ± 0.05 | 100 µg/mL | 400 µg/mL |  |
|  |  |  |  |  |  |  |  |  | NC(=S)N/N=C/c1ncccc1N [triapine, 3-amino-2-pyridinecarboxaldehyde TSC, reference compound] |  | 0.6 |  |  |  |  |  | tyrosyl radical loss (mouse R2 RNR protein): 100%; IC50 (A2780 cells [2]; Homo sapiens, A2780, 72 h exposure): 0.67 ± 0.22 µM; IC50 (HEK293 cells; Homo sapiens, HEK293): 0.39 ± 0.05 µM; IC50 (A2780cisR cells; Homo sapiens): 1.1 ± 0.1 µM |
